What was measured:
[1] = Half life in healthy human at 800 mg, po qd after 1 day; type: ADME, organism-based; conditions: in vivo
[2] = Cmax in healthy human at 400 mg, po bid after 1 day; type: ADME, organism-based; set-up: dose 400 mg, route oral; conditions: in vivo
[3] = AUC (0 to infinity) in fed state healthy human at 200 mg, po administered as single dose; type: ADME, organism-based; set-up: dose 200 mg, route oral, time infinity; conditions: plasma
[4] = Plasma concentration in fed state healthy human at 400 mg, po administered as single dose after 24 hrs; type: ADME, organism-based
[5] = Apparent total volume of distribution in fed state healthy human at 1200 mg, po administered as single dose; type: ADME, organism-based; conditions: in vivo, read-out: Vz/F
[6] = Tmax in fed state healthy human at 1200 mg, po administered as single dose; type: ADME, organism-based; conditions: in vivo
[7] = Oral bioavailability in human; type: ADME, organism-based; conditions: in vivo
[8] = Apparent total volume of distribution in fasted state healthy human at 100 mg, po administered as single dose; type: ADME, organism-based; conditions: in vivo, read-out: Vz/F
[9] = Cmax in healthy human at 800 mg, po qd after 1 day; type: ADME, organism-based; set-up: dose 800 mg, route oral; conditions: in vivo
[10] = AUC (0 to infinity) in fasted state healthy human at 50 mg, po administered as single dose; type: ADME, organism-based; set-up: dose 50 mg, route oral, time infinity; conditions: plasma
[11] = Cmax in fed state healthy human at 200 mg, po administered as single dose; type: ADME, organism-based; set-up: dose 200 mg, route oral; conditions: in vivo
[12] = Cmax in fed state healthy human at 800 mg, po administered as single dose; type: ADME, organism-based; set-up: dose 800 mg, route oral; conditions: in vivo
[13] = Tmax in fed state healthy human at 800 mg, po administered as single dose; type: ADME, organism-based; conditions: in vivo
[14] = Trough plasma concentration in healthy human at 400 mg, po bid after 1 day; type: ADME, organism-based; conditions: read-out: Cmin
[15] = Half life in healthy human at 400 mg, po bid after 7 days; type: ADME, organism-based; conditions: in vivo
Homo sapiens [16] = test: Toxicity in healthy human assessed as incidence of nausea at 400 mg, po bid and 800 mg, po qd for 7 days; type: organism-based; conditions: in vivo, 168 h
Homo sapiens [17] = test: Toxicity in healthy human assessed as incidence of abnormal dreams at 400 mg, po bid and 800 mg, po qd for 7 days; type: organism-based; conditions: in vivo, 168 h
Homo sapiens [18] = test: Toxicity in healthy human assessed as occurrence of head ache at 50 to 1200 mg, po administered as single dose; type: organism-based; conditions: in vivo
[19] = Apparent total plasma clearance in fasted state healthy human at 200 mg, po administered as single dose; type: ADME, organism-based
[20] = Apparent total volume of distribution in fasted state healthy human at 50 mg, po administered as single dose; type: ADME, organism-based; conditions: in vivo, read-out: Vz/F
[21] = Apparent total volume of distribution in healthy human at 400 mg, po bid after 7 days; type: ADME, organism-based; conditions: in vivo, read-out: Vz/F
[22] = AUC (0 to infinity) in healthy human at 800 mg, po qd after 7 days; type: ADME, organism-based; set-up: dose 800 mg, route oral, time infinity; conditions: plasma
[23] = Tmax in healthy human at 400 mg, po bid after 7 days; type: ADME, organism-based; conditions: in vivo
[24] = Cmax in fasted state healthy human at 50 mg, po administered as single dose; type: ADME, organism-based; set-up: dose 50 mg, route oral; conditions: in vivo
[25] = Apparent total plasma clearance in fed state healthy human at 200 mg, po administered as single dose; type: ADME, organism-based
[26] = Apparent total volume of distribution in fasted state healthy human at 200 mg, po administered as single dose; type: ADME, organism-based; conditions: in vivo, read-out: Vz/F
Homo sapiens [27] = test: Toxicity in healthy human assessed as incidence of pollakiuria at 400 mg, po bid and 800 mg, po qd for 7 days; type: organism-based; conditions: in vivo, 168 h
[28] = Trough plasma concentration in healthy human at 400 mg, po bid after 7 days; type: ADME, organism-based; conditions: read-out: Cmin
[29] = Half life in fed state healthy human at 1200 mg, po administered as single dose; type: ADME, organism-based; conditions: in vivo
[30] = Apparent total plasma clearance in fasted state healthy human at 100 mg, po administered as single dose; type: ADME, organism-based
[31] = Tmax in healthy human at 800 mg, po qd after 7 days; type: ADME, organism-based; conditions: in vivo
[32] = Plasma concentration in fed state healthy human at 1200 mg, po administered as single dose after 24 hrs; type: ADME, organism-based
[33] = Apparent total plasma clearance in healthy human at 400 mg, po bid after 7 days; type: ADME, organism-based
[34] = Apparent total plasma clearance in fed state healthy human at 400 mg, po administered as single dose; type: ADME, organism-based
[35] = Apparent total plasma clearance in fed state healthy human at 800 mg, po administered as single dose; type: ADME, organism-based
[36] = Tmax in fasted state healthy human at 200 mg, po administered as single dose; type: ADME, organism-based; conditions: in vivo
[37] = AUC (0 to infinity) in fed state healthy human at 800 mg, po administered as single dose; type: ADME, organism-based; set-up: dose 800 mg, time infinity, route oral; conditions: plasma
[38] = Apparent total volume of distribution in fed state healthy human at 800 mg, po administered as single dose; type: ADME, organism-based; conditions: in vivo, read-out: Vz/F
[39] = Cmax in healthy human at 400 mg, po bid after 7 days; type: ADME, organism-based; set-up: dose 400 mg, route oral; conditions: in vivo
[40] = Apparent total volume of distribution in fed state healthy human at 200 mg, po administered as single dose; type: ADME, organism-based; conditions: in vivo, read-out: Vz/F
[41] = Tmax in healthy human at 400 mg, po bid after 1 day; type: ADME, organism-based; conditions: in vivo
[42] = Apparent total volume of distribution in fed state healthy human at 400 mg, po administered as single dose; type: ADME, organism-based; conditions: in vivo, read-out: Vz/F
[43] = Apparent total volume of distribution in fasted state healthy human at 400 mg, po administered as single dose; type: ADME, organism-based; conditions: in vivo, read-out: Vz/F
[44] = Cmax in fed state female healthy human at 400 mg, po administered as single dose; type: ADME, organism-based; set-up: dose 400 mg, route oral; conditions: in vivo
[45] = Plasma concentration in fasted state healthy human at 200 mg, po administered as single dose after 24 hrs; type: ADME, organism-based
[46] = Cmax in healthy human at 800 mg, po qd after 7 days; type: ADME, organism-based; set-up: dose 800 mg, route oral; conditions: in vivo
[47] = Tmax in fed state healthy human at 400 mg, po administered as single dose; type: ADME, organism-based; conditions: in vivo
[48] = AUC (0 to infinity) in fasted state healthy human at 100 mg, po administered as single dose; type: ADME, organism-based; set-up: dose 100 mg, time infinity, route oral; conditions: plasma
Homo sapiens [49] = organism: Homo sapiens; test: Protein binding in human; type: ADME, organism-based; conditions: in vivo
Homo sapiens [50] = test: Toxicity in healthy human assessed as occurrence of nausea at 50 to 1200 mg, po administered as single dose; type: organism-based; conditions: in vivo

## COP(=O)(c1cc(C)cc(/C=C/C#N)c1)c1c(C(N)=O)[nH]c2ccc(Cl)cc12 (stereo not given)
[1]
  half-life: 498 min
[2]
  Cmax: 2000 ng/mL
[3]
  AUC(0-inf): 16800 ng·h/mL
[4]
  concentration at 24 h: 360 ng/mL
[5]
  Vd/F: 134 L
[6]
  Tmax: 10.1 h
[7]
  bioavailability: 61%
[8]
  Vd/F: 66.3 L
[9]
  Cmax: 4900 ng/mL
[10]
  AUC(0-inf): 8800 ng·h/mL
[11]
  Cmax: 1300 ng/mL
[12]
  Cmax: 3000 ng/mL
[13]
  Tmax: 6 h
[14]
  concentration at 24 h: 800 ng/mL
[15]
  half-life: 738 min
Homo sapiens [16]
  Activity: 0%
Homo sapiens [17]
  Activity: 6.3%
Homo sapiens [18]
  Activity: 8.2%
[19]
  CL/F: 555 mL/min
[20]
  Vd/F: 53.3 L
[21]
  Vd/F: 236 L
[22]
  AUC(0-inf): 54600 ng·h/mL
[23]
  Tmax: 4 h
[24]
  Cmax: 1600 ng/mL
[25]
  CL/F: 230 mL/min
[26]
  Vd/F: 555 L
Homo sapiens [27]
  Activity: 12.5%
[28]
  concentration at 168 h: 2100 ng/mL
[29]
  half-life: 474 min
[30]
  CL/F: 118 mL/min
[31]
  Tmax: 4 h
[32]
  concentration at 24 h: 2020 ng/mL
[33]
  CL/F: 268 mL/min
[34]
  CL/F: 215 mL/min
[35]
  CL/F: 297 mL/min
[36]
  Tmax: 1.5 h
[37]
  AUC(0-inf): 47200 ng·h/mL
[38]
  Vd/F: 301 L
[39]
  Cmax: 4000 ng/mL
[40]
  Vd/F: 201 L
[41]
  Tmax: 4 h
[42]
  Vd/F: 166 L
[43]
  Vd/F: 606 L
[44]
  Cmax: 1900 ng/mL
[45]
  concentration at 24 h: 70 ng/mL
[46]
  Cmax: 4600 ng/mL
[47]
  Tmax: 7 h
[48]
  AUC(0-inf): 15800 ng·h/mL
Homo sapiens [49]
  Activity: > 99.8%
Homo sapiens [50]
  Activity: 4.1%

From ChEMBL document CHEMBL1649173, “Single-dose escalation and multiple-dose safety, tolerability, and pharmacokinetics of IDX899, a candidate human immunodeficiency virus type 1 nonnucleoside reverse transcriptase inhibitor, in healthy subjects” (Antimicrob Agents Chemother, 2009)
